From PubChem BioAssay (NCI)
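Where inhibition never reached the appropriate level, the endpoint shown equals the highest concentration tested. Otherwise, values were interpolated linearly from a five-concentration, 48-hour dose response in 96-well plates. GI50 is the concentration that inhibits growth by half. TGI marks complete inhibition of growth.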

What was measured:
Experiment in all cases: DTP human tumour cell line panel, 48 h
[1] = test system: HT29 colon
[2] = test system: COLO 205 colon
[3] = test system: HS 578T breast
[4] = test system: MDA-MB-435
[5] = test system: DU-145 prostate
[6] = test system: U251 CNS
[7] = test system: NCI-H460 lung
[8] = test system: NCI-H23 lung
[9] = test system: SF-539 CNS
[10] = test system: KM12 colon

Compound | TGI [1] [nM] | TGI [2] [nM] | TGI [3] [nM] | TGI [4] [nM] | TGI [5] [nM] | TGI [6] [nM] | TGI [7] [nM] | TGI [8] [nM] | TGI [9] [nM] | GI50 [1] [nM] | GI50 [10] [nM] | TGI [10] [nM] | GI50 [3] [nM] | GI50 [7] [nM] | GI50 [8] [nM] | GI50 [2] [nM] | GI50 [4] [nM] | GI50 [5] [nM] | GI50 [6] [nM] | GI50 [9] [nM]
COc1ccc(C(=O)C2CC3(CCC2(O)c2ccc(OC)cc2)CC(=O)Nc2ccccc2C3=O)cc1 (stereo not drawn) | > 100000 | > 100000 | > 100000 | > 100000 | > 100000 | > 100000 | > 100000 | > 100000 | > 100000 |  |  |  |  |  |  |  |  |  |  | 
ClCCN(CCCl)Cc1ccc(Nc2ccnc3cc(Cl)ccc23)cc1 | 4730 |  | 8380 |  |  |  | 10700 | 4520 |  | 1280 | 2070 | 5570 | 2920 | 402 | 1330 |  |  |  |  | 
COC[C@H]1C(=O)NCC(=O)N2NCCC[C@H]2C(=O)N(O)[C@H](C)C(=O)O[C@@H](C(C)C)[C@H](NC(=O)[C@](C)(O)[C@]2(O)CC[C@@H](CC(C)C)[C@H](C)O2)C(=O)N2NCCC[C@@H]2C(=O)N1O | 29.3 | 28.4 | 24.4 | 12.8 | 23.2 | 21.6 | 12.5 | 36.4 | 28.5 | 14.4 | 10 | 24.1 | < 10 | < 10 | < 10 | 13.9 | < 10 | < 11.4 | < 10 | 14.6
CCOc1ncn(-c2ccc(NC(=S)Nc3cccc(O)c3)cc2)n1 | > 100000 | > 100000 |  | > 100000 | > 100000 | > 100000 | > 100000 | > 100000 | > 100000 |  |  | > 100000 |  |  |  |  |  |  |  | 
